Experimental data: patent publication US20250034197A1, “NUCLEOSIDE-DIPHOSPHATE-HEPTOSE COMPOUNDS FOR TREATING CONDITIONS ASSOCIATED WITH ALPK1 ACTIVITY” (PYROTECH (BEIJING) BIOTECHNOLOGY CO., LTD., priority 2021, published 2025)

target: T1, ALPK1 (Homo sapiens, UniProt Q96QP1); assay: NF-κB luciferase reporter assay in 293T cells (cellular assay); format: cell-based
T1 construct: endogenous in cells; host or cells: 293T cells
Experimental: The compounds disclosed herein activate NF-κB through ALPK1-TIFA axis as determined by the NF-κB luciferase reporter and TIFA phosphorylation. For NF-κB luciferase assay, the plasmids (pNL2.2-BII-5RE-Luc), and control vector (pRL-TK) were transfected into 293T cells with the Jetprime reagents (Polyplus). NF-κB luciferase activity was determined using the dual luciferase assay kit (Promega) according to the manufacturer's instructions. TIFA phosphorylation upon the treatment with the compounds disclosed herein described in Table 1, were assayed with immunoblotting. Briefly, for the immunoblotting assay, the 293T cells were seeded in 12-well-plates and cultured for 16 h, and treated with indicated compounds for another 2 hours. Subsequently, the cells were collected and sampled as the regular western-blotting method, immunoblotted by the TIFA phosphorylation specific antibody (ab214815, Abcam).
The EC50 of the compounds disclosed herein were determined by the NF-κB luciferase reporter assay using 293T cells described supra. Compounds with indicated concentrations were added to the culture medium of 293T and the NF-κB luciferase activity was determined using the dual luciferase assay kit (Promega) according to the manufacturer's instructions. […] These chemical entities induce strong activation of the immune regulator NF-κB.

T1 sequence (Q96QP1 whole entry): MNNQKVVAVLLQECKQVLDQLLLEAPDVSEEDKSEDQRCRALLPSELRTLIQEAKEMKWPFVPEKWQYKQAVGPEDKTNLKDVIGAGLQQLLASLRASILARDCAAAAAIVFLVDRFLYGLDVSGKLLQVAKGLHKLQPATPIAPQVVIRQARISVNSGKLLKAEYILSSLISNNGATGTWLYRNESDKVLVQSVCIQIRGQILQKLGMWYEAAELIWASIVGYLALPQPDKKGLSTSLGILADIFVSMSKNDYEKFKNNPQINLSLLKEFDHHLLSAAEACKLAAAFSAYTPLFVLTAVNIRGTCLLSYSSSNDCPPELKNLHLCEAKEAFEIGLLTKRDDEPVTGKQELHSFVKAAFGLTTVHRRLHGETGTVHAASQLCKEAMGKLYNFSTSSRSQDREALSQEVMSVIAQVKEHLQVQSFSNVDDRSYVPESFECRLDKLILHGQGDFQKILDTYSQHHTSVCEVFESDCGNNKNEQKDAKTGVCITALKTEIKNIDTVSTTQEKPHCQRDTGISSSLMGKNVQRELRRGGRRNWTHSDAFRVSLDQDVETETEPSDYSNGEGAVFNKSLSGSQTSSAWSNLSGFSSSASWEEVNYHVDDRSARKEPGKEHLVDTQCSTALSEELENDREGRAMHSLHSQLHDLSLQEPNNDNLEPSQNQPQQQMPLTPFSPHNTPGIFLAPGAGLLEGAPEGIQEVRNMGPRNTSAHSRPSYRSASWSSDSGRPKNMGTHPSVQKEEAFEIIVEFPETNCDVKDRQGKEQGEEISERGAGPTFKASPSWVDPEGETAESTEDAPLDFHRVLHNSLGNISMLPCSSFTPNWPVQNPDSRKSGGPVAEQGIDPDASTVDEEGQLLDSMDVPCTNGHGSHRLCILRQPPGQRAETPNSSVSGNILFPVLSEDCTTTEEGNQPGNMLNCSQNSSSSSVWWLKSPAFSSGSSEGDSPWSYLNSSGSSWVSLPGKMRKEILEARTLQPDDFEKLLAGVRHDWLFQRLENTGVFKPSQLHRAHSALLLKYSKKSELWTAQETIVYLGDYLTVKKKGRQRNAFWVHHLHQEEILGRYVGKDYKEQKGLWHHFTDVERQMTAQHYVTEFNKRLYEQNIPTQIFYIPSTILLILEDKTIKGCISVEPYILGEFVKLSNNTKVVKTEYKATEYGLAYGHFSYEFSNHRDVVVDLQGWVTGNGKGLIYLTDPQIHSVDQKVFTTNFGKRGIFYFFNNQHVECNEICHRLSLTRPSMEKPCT

EC50 [nM]	SMILES
1060	C=C=C[C@@]1(O)[C@H](O)[C@@H](COP(=O)(S)OP(=O)(O)OC2OC([C@H](COC(C)=O)OC(C)=O)C(OC(C)=O)C(OC(C)=O)C2OC(C)=O)O[C@H]1n1cnc2c(N)ncnc21 (some centres unmarked) [Example 97C]
0.15	C=C[C@@]1(O)[C@H](O)[C@@H](COP(=O)(S)OP(=O)(O)OC2OC([C@H](COC(=O)CC)OC(C)=O)C(OC(C)=O)C(OC(C)=O)C2OC(C)=O)O[C@H]1n1cnc2c(N)ncnc21 (some centres unmarked) [Example 31H]
49.1	C#C[C@@]1(F)[C@H](O)[C@@H](COP(=O)(S)OP(=O)(O)OC2OC([C@H](COC(C)=O)OC(C)=O)C(OC(C)=O)C(OC(C)=O)C2OC(C)=O)O[C@H]1n1ccc(=O)[nH]c1=O (some centres unmarked) [Example 22C]
38.7	CN(C)[C@@H]1[C@H](O)[C@@H](COP(=O)(S)OP(=O)(O)OC2OC([C@@H](O)CO)C(O)C(O)C2O)O[C@H]1n1cnc2c(N)ncnc21 (some centres unmarked) [Example 35D]
1620	CC(=O)OC[C@H](OC(C)=O)C1OC(OP(=O)(O)OP(=O)(S)OC[C@H]2O[C@@H](n3cnc4c(N)ncnc43)[C@H](N3CCC3)[C@@H]2O)C(OC(C)=O)C(OC(C)=O)C1OC(C)=O (some centres unmarked) [Example 36C]
45.4	C=C[C@@]1(O)[C@H](O)[C@@H](COP(=O)(S)OP(=O)(O)OC2OC([C@H](COC(C)=O)OC(C)=O)C(OC(C)=O)C(OC(C)=O)C2OC(C)=O)O[C@H]1c1csc2c(N)ncnc12 (some centres unmarked) [Example 265C]
434	CC(=O)N[C@@H]1[C@H](O)[C@@H](COP(=O)(S)OP(=O)(O)OC2OC([C@H](COC(C)=O)OC(C)=O)C(OC(C)=O)C(OC(C)=O)C2OC(C)=O)O[C@H]1n1cnc2c(N)ncnc21 (some centres unmarked) [Example 33E]
10.3	CN(C)[C@@H]1[C@H](O)[C@@H](CO[P@@](=O)(S)OP(=O)(O)OC2OC([C@@H](O)CO)C(O)C(O)C2O)O[C@H]1n1cnc2c(N)ncnc21 (single isomer, unassigned) [Example 35J]
48.3	C#C[C@@]1(O)[C@H](O)[C@@H](COP(=O)(S)OP(=O)(O)OC2OC([C@H](COC(C)=O)OC(C)=O)C(OC(C)=O)C(OC(C)=O)C2OC(C)=O)O[C@H]1c1csc2c(N)ncnc12 (some centres unmarked) [Example 264C]
231	C=C[C@@]1(O)[C@H](O)[C@@H](COP(=O)(S)OP(=O)(O)OC2OC([C@H](COC(C)=O)OC(C)=O)C(OC(C)=O)C(OC(C)=O)C2OC(C)=O)O[C@H]1c1csc(C(N)=O)c1N (some centres unmarked) [Example 126C]
431	CC(=O)OC[C@H](OC(C)=O)C1OC(OP(=O)(O)OP(=O)(S)OC[C@H]2O[C@@H](n3ccc(=O)[nH]c3=O)[C@H](N(C)C)[C@@H]2O)C(OC(C)=O)C(OC(C)=O)C1OC(C)=O (some centres unmarked) [Example 40C]
34.8	C#C[C@@]1(OC)[C@H](O)[C@@H](COP(=O)(S)OP(=O)(O)OC2OC([C@H](COC(C)=O)OC(C)=O)C(OC(C)=O)C(OC(C)=O)C2OC(C)=O)O[C@H]1n1ccc(=O)[nH]c1=O (some centres unmarked) [Example 95C]
244	C#C[C@@]1(O)[C@H](O)[C@@H](COP(=O)(S)OP(=O)(O)OC2OC([C@@H](F)COC(C)=O)C(OC(C)=O)C(OC(C)=O)C2OC(C)=O)O[C@H]1n1cnc2c(N)ncnc21 (some centres unmarked) [Example 25A]
360	CC(=O)OC[C@H](OC(C)=O)C1OC(OP(=O)(O)OP(=O)(S)OC[C@H]2O[C@@H](n3ccc(=O)[nH]c3=O)[C@](C)(N)[C@@H]2O)C(OC(C)=O)C(OC(C)=O)C1OC(C)=O (some centres unmarked) [Example 112C]
16.7	CC(=O)OC[C@H](OC(C)=O)C1OC(OP(=O)(O)O[P@](=O)(S)OC[C@H]2O[C@@H](n3cnc4c(N)ncnc43)[C@H](N(C)C)[C@@H]2O)C(OC(C)=O)C(OC(C)=O)C1OC(C)=O (single isomer, unassigned) [Example 35H]
20	C#C[C@@]1(O)[C@H](O)[C@@H](COP(=O)(S)OP(=O)(O)OC2OC([C@H](COC(C)=O)OC(C)=O)C(OC(C)=O)C(OC(C)=O)C2OC(C)=O)O[C@H]1n1cnc2c(N)ncnc21 (some centres unmarked) [Example 25C]
> 3000	CC(=O)OC[C@H](OC(C)=O)C1OC(OP(=O)(O)OP(=O)(S)OC[C@H]2O[C@@H](n3cnc4c(N)ncnc43)[C@H](N3CCCC3)[C@@H]2O)C(OC(C)=O)C(OC(C)=O)C1OC(C)=O (some centres unmarked) [Example 37C]
7.77	C=C[C@@]1(OC)[C@H](O)[C@@H](COP(=O)(S)OP(=O)(O)OC2OC([C@H](COC(C)=O)OC(C)=O)C(OC(C)=O)C(OC(C)=O)C2OC(C)=O)O[C@@H]1n1ccc(=O)[nH]c1=O (stereo in doubt) [Example 45E]
15.2	C#C[C@@]1(F)[C@H](O)[C@@H](COP(=O)(S)OP(=O)(O)OC2OC([C@H](COC(C)=O)OC(C)=O)C(OC(C)=O)C(OC(C)=O)C2OC(C)=O)O[C@H]1n1cnc2c(N)ncnc21 (some centres unmarked) [Example 21C]

EC50 [nM]	SMILES
36.3	CS[C@@H]1[C@H](O)[C@@H](COP(=O)(S)OP(=O)(O)OC2OC([C@H](COC(C)=O)OC(C)=O)C(OC(C)=O)C(OC(C)=O)C2OC(C)=O)O[C@H]1n1ccc(=O)[nH]c1=O (some centres unmarked) [Example 262C]
> 1000	C=C=C[C@@]1(O)[C@H](O)[C@@H](COP(=O)(S)OP(=O)(O)OC2OC([C@@H](O)CO)C(O)C(O)C2O)O[C@H]1n1cnc2c(N)ncnc21 (single isomer, unassigned) [Example 97D]
16.9	CC(=O)OC[C@H](OC(C)=O)C1OC(OP(=O)(O)O[P@@](=O)(S)OC[C@H]2O[C@@H](n3cnc4c(N)ncnc43)[C@H](N(C)C)[C@@H]2O)C(OC(C)=O)C(OC(C)=O)C1OC(C)=O (single isomer, unassigned) [Example 35G]
> 1000	C=C[C@@]1(O)[C@H](O)[C@@H](COP(=O)(S)OP(=O)(O)OC2OC([C@@H](OC(C)=O)C(COC(C)=O)OC(C)=O)C(OC(C)=O)C(OC(C)=O)C2OC(C)=O)O[C@H]1n1cnc2c(N)ncnc21 (some centres unmarked) [Example 321C]
2310	C=C=C[C@@]1(O)[C@H](O)[C@@H](COP(=O)(S)OP(=O)(O)OC2OC([C@H](COC(C)=O)OC(C)=O)C(OC(C)=O)C(OC(C)=O)C2OC(C)=O)O[C@H]1n1ccc(=O)[nH]c1=O (some centres unmarked) [Example 98C]
10.9	CN(C)[C@@H]1[C@H](O)[C@@H](CO[P@](=O)(S)OP(=O)(O)OC2OC([C@@H](O)CO)C(O)C(O)C2O)O[C@H]1n1cnc2c(N)ncnc21 (single isomer, unassigned) [Example 35I]
34.2	CC(=O)OC[C@H](F)C1OC(OP(=O)(O)O[P@@](=O)(S)OC[C@H]2O[C@@H](n3cnc4c(N)ncnc43)[C@H](N(C)C)[C@@H]2O)C(OC(C)=O)C(OC(C)=O)C1OC(C)=O (some centres unmarked) [Example 35K]
7.23	C=C[C@@]1(O)[C@H](O)[C@@H](CO[P@@](=O)(S)OP(=O)(O)OC2OC([C@H](COC(C)=O)OC(C)=O)C(OC(C)=O)C(OC(C)=O)C2OC(C)=O)O[C@H]1n1cnc2c(N)ncnc21 (single isomer, unassigned) [Example 31P]
21	C=C[C@@]1(O)[C@H](O)[C@@H](CO[P@](=O)(S)OP(=O)(O)OC2OC([C@H](COC(C)=O)OC(C)=O)C(OC(C)=O)C(OC(C)=O)C2OC(C)=O)O[C@H]1n1cnc2c(N)ncnc21 (single isomer, unassigned) [Example 31O]
345	CN[C@@H]1[C@H](O)[C@@H](COP(=O)(S)OP(=O)(O)OC2OC([C@H](COC(C)=O)OC(C)=O)C(OC(C)=O)C(OC(C)=O)C2OC(C)=O)O[C@H]1n1cnc2c(N)ncnc21 (some centres unmarked) [Example 34C]
6.76	CO[C@@H]1[C@H](O)[C@@H](COP(=O)(S)OP(=O)(O)OC2OC([C@H](COC(C)=O)OC(C)=O)C(OC(C)=O)C(OC(C)=O)C2OC(C)=O)O[C@H]1c1cnc2c(N)ncnn12 (some centres unmarked) [Example 322C]
3.62	C=C[C@@]1(O)[C@H](O)[C@@H](COP(=O)(S)OP(=O)(O)OC2OC([C@H](COC(C)=O)OC(C)=O)C(OC(C)=O)C(OC(C)=O)C2OC(C)=O)O[C@H]1c1cnn2c(N)ncnc12 (some centres unmarked) [Example 128C]
9.58	C=C[C@@]1(OC)[C@H](O)[C@@H](COP(=O)(S)OP(=O)(O)OC2OC([C@H](COC(C)=O)OC(C)=O)C(OC(C)=O)C(OC(C)=O)C2OC(C)=O)O[C@H]1n1ccc(=O)[nH]c1=O (some centres unmarked) [Example 45C]
2.99	C=C[C@@]1(O)[C@H](O)[C@@H](COP(=O)(S)OP(=O)(O)OC2OC([C@H](COC(=O)C(C)C)OC(=O)C(C)C)C(OC(C)=O)C(OC(C)=O)C2OC(C)=O)O[C@H]1n1cnc2c(N)ncnc21 (some centres unmarked) [Example 31M]
45.5	C#C[C@@]1(O)[C@H](O)[C@@H](COP(=O)(S)OP(=O)(O)OC2OC([C@H](COC(C)=O)OC(C)=O)C(OC(C)=O)C(OC(C)=O)C2OC(C)=O)O[C@H]1n1ccc(=O)[nH]c1=O (some centres unmarked) [Example 26C]
167	CN[C@@H]1[C@H](O)[C@@H](COP(=O)(S)OP(=O)(O)OC2OC([C@@H](O)CO)C(O)C(O)C2O)O[C@H]1n1cnc2c(N)ncnc21 (some centres unmarked) [Example 34D]
2.89	C=C[C@@]1(O)[C@H](O)[C@@H](COP(=O)(S)OP(=O)(O)OC2OC([C@H](COC(C)=O)OC(C)=O)C(OC(C)=O)C(OC(C)=O)C2OC(C)=O)O[C@H]1c1coc2c(N)ncnc12 (some centres unmarked) [Example 125C]
> 3000	C#C[C@@]1(N=[N+]=[N-])[C@H](O)[C@@H](COP(=O)(S)OP(=O)(O)OC2OC([C@H](COC(C)=O)OC(C)=O)C(OC(C)=O)C(OC(C)=O)C2OC(C)=O)O[C@H]1n1ccc(=O)[nH]c1=O (some centres unmarked) [Example 110C]

SMILES	EC50 [nM]
C=C[C@@]1(O)[C@H](O)[C@@H](COP(=O)(OP(=O)(O)OC2OC([C@H](COC(C)=O)OC(C)=O)C(OC(C)=O)C(OC(C)=O)C2OC(C)=O)SCOC(=O)OC(C)C)O[C@H]1n1cnc2c(N)ncnc21 (some centres unmarked) [Example 31L]	13.8
